Source: ChEMBL document CHEMBL1133695, “A three-dimensional model of lanosterol 14alpha-demethylase of Candida albicans and its interaction with azole antifungals” (J Med Chem, 2000)

Test system: Candida albicans
Test: Concentration required to reduce the growth of Candida albicans to 50% of that in the control
Type: functional, organism-based

Row | Structure (SMILES) | IC50 [µM]
1 | COc1cc(C(F)(F)F)ccc1C(O)(Cn1cncn1)Cn1cncn1 | 28.5
2 | OC(Cn1cncn1)(Cn1cncn1)c1ccccc1C(F)(F)F | 103
3 | OC(Cn1cncn1)(Cn1cncn1)c1ccc(-c2ccc(Cl)cc2)cc1 | 7.19
4 | OC(Cn1cncn1)(Cn1cncn1)c1ccc(C(F)(F)F)cc1 | 3.25
5 | Cc1cc(F)ccc1C(O)(Cn1cncn1)Cn1cncn1 | 101
6 | OC(Cn1cncn1)(Cn1cncn1)c1ccc(Oc2ccc(Cl)cc2)cc1 | 6.94
7 | OC(Cn1cncn1)(Cn1cncn1)c1ccc(F)cc1F [FLUCONAZOLE] | 1.97
